Data taken from PubChem BioAssay AID248 (DTP/NCI, 2004).
“And” between values parts separate entries of the source, which are not always exact repeats. Identical values can stand only once. Toxic doses and inconclusive results are not listed. Rule as the data show it: active = T/C of 150% or more; inactive = T/C below 125%.

Tested on: L1210 leukemia ip in BDF1 mice, survival T/C
Test: NCI In Vivo Anticancer Drug Screen. Data for tumor model L1210 Leukemia (intraperitoneal) in B6D2F1 (BDF1) mice
Conditions: endpoint: mean survival time, higher = longer survival
Summary of the method: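 Transplanted-tumor mice were given test agent; controls received vehicle only. Survival readings from the two groups were divided (treated over control).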

[1] = dose: 100.0 mg/kg/injection, schedule: Q04DX002 (ip), vehicle: Klucel (hydroxypropylcellulose) (HPC)
[2] = dose: 200.0 mg/kg/injection, schedule: Q04DX002 (ip), vehicle: Klucel (hydroxypropylcellulose) (HPC)
[3] = dose: 400.0 mg/kg/injection, schedule: Q04DX002 (ip), vehicle: Klucel (hydroxypropylcellulose) (HPC)
[4] = dose: 200.0 mg/kg/injection, schedule: Q01DX009 (ip), vehicle: Klucel (hydroxypropylcellulose) (HPC)
[5] = dose: 25.0 mg/kg/injection, schedule: Q04DX003 (ip), vehicle: saline with Tween-80
[6] = dose: 100.0 mg/kg/injection, schedule: Q04DX003 (ip), vehicle: saline
[7] = dose: 200.0 mg/kg/injection, schedule: Q04DX003 (ip), vehicle: saline
[8] = dose: 400.0 mg/kg/injection, schedule: Q04DX003 (ip), vehicle: saline
[9] = dose: 100.0 mg/kg/injection, schedule: Q01DX009 (ip), vehicle: Klucel (hydroxypropylcellulose) (HPC)
[10] = dose: 400.0 mg/kg/injection, schedule: Q01DX009 (ip), vehicle: Klucel (hydroxypropylcellulose) (HPC)
[11] = dose: 100.0 mg/kg/injection, schedule: Q04DX003 (ip), vehicle: Klucel (hydroxypropylcellulose) (HPC)
[12] = dose: 200.0 mg/kg/injection, schedule: Q04DX003 (ip), vehicle: Klucel (hydroxypropylcellulose) (HPC)
[13] = dose: 400.0 mg/kg/injection, schedule: Q04DX003 (ip), vehicle: Klucel (hydroxypropylcellulose) (HPC)

Measured: T/C

C=CCNC(N)=S
inactive: dose: 100.0 mg/kg/injection, schedule: Q04DX002 (ip), vehicle: saline 100 % of control | dose: 200.0 mg/kg/injection, schedule: Q04DX002 (ip), vehicle: saline 107 % of control | dose: 400.0 mg/kg/injection, schedule: Q04DX002 (ip), vehicle: saline 95 % of control

CC(=O)n1c(O)c(N=Nc2ccc([N+](=O)[O-])cc2[N+](=O)[O-])c2cc(Br)ccc21
inactive: [1] 92 % of control | [2] 92 % of control | [3] 92 % of control

Cc1n(CCBr)c([N+](=O)[O-])c[n+]1C1N=C(c2ccccc2Cl)c2cc(Cl)ccc2NC1=O (configuration not stated)
inactive: dose: 50.0 mg/kg/injection, schedule: Q01DX009 (ip), vehicle: Klucel (hydroxypropylcellulose) (HPC) 86 % of control | [4] 89 % of control

c1ccc([As+](c2ccccc2)(c2ccccc2)c2ccccc2)cc1
inactive: dose: 1.1 mg/kg/injection, schedule: Q01DX Z (ip), vehicle: carboxymethylcellulose (CMC) 120 % of control | dose: 1.2 mg/kg/injection, schedule: Q04DX003 (ip), vehicle: carboxymethylcellulose (CMC) 119 % of control | dose: 1.7 mg/kg/injection, schedule: Q01DX Z (ip), vehicle: carboxymethylcellulose (CMC) 104 % of control and 119 % of control | dose: 2.5 mg/kg/injection, schedule: Q01DX Z (ip), vehicle: carboxymethylcellulose (CMC) 101 % of control | dose: 2.5 mg/kg/injection, schedule: Q01DX Z (ip), vehicle: methylcellulose (MC) 119 % of control | dose: 2.5 mg/kg/injection, schedule: Q04DX003 (ip), vehicle: carboxymethylcellulose (CMC) 117 % of control | dose: 3.76 mg/kg/injection, schedule: Q01DX Z (ip), vehicle: carboxymethylcellulose (CMC) 107 % of control | dose: 5.0 mg/kg/injection, schedule: Q01DX001 (ip), vehicle: carboxymethylcellulose (CMC) 115 % of control | dose: 5.0 mg/kg/injection, schedule: Q01DX001 (ip), vehicle: saline 106 % of control | dose: 5.0 mg/kg/injection, schedule: Q04DX003 (ip), vehicle: carboxymethylcellulose (CMC) 116 % of control | dose: 5.56 mg/kg/injection, schedule: Q01DX Z (ip), vehicle: carboxymethylcellulose (CMC) 102 % of control | dose: 10.0 mg/kg/injection, schedule: Q01DX001 (ip), vehicle: saline 106 % of control

CCCCCCCCP(=O)(O)CCCCCCCC
inactive: [5] 96 % of control | dose: 50.0 mg/kg/injection, schedule: Q04DX003 (ip), vehicle: saline with Tween-80 87 % of control | dose: 100.0 mg/kg/injection, schedule: Q04DX003 (ip), vehicle: saline with Tween-80 91 % of control

CCC[CH2][Sn]([CH2]C)([CH2]CCC)[CH2]CCC
inactive: [6] 93 % of control | [7] 93 % of control | [8] 95 % of control

O=C(Nc1cccc(Cl)c1Cl)N(Cc1ccccc1)Cc1ccccc1
inactive: [9] 108 % of control | [4] 97 % of control | [10] 101 % of control

CC(C)C(NC(=O)c1ccccc1)C(=O)O (configuration not stated)
inactive: [9] 92 % of control | [11] 96 % of control | [4] 98 % of control | [12] 113 % of control | [10] 96 % of control | [13] 100 % of control

O=C(Nc1ccc(Nc2ccccc2)cc1)Nc1ccccc1C(F)(F)F
inactive: dose: 50.0 mg/kg/injection, schedule: Q01DX001 (ip), vehicle: carboxymethylcellulose (CMC) 95 % of control | dose: 50.0 mg/kg/injection, schedule: Q04DX003 (ip), vehicle: carboxymethylcellulose (CMC) 100 % of control | dose: 100.0 mg/kg/injection, schedule: Q01DX001 (ip), vehicle: carboxymethylcellulose (CMC) 105 % of control | dose: 100.0 mg/kg/injection, schedule: Q01DX009 (ip), vehicle: carboxymethylcellulose (CMC) 88 % of control | dose: 100.0 mg/kg/injection, schedule: Q04DX002 (ip), vehicle: carboxymethylcellulose (CMC) 102 % of control and 106 % of control | dose: 100.0 mg/kg/injection, schedule: Q04DX003 (ip), vehicle: carboxymethylcellulose (CMC) 93 % of control | dose: 200.0 mg/kg/injection, schedule: Q01DX001 (ip), vehicle: carboxymethylcellulose (CMC) 92 % of control | dose: 200.0 mg/kg/injection, schedule: Q01DX009 (ip), vehicle: carboxymethylcellulose (CMC) 86 % of control and 92 % of control | dose: 200.0 mg/kg/injection, schedule: Q04DX002 (ip), vehicle: carboxymethylcellulose (CMC) 94 % of control and 97 % of control | dose: 400.0 mg/kg/injection, schedule: Q01DX009 (ip), vehicle: carboxymethylcellulose (CMC) 92 % of control | dose: 400.0 mg/kg/injection, schedule: Q04DX002 (ip), vehicle: carboxymethylcellulose (CMC) 94 % of control and 92 % of control

O=c1[nH]c(=O)c2ccccc2o1
inactive: dose: 2.5 mg/kg/injection, schedule: Q04DX003 (ip), vehicle: saline 100 % of control | dose: 5.0 mg/kg/injection, schedule: Q04DX003 (ip), vehicle: saline 105 % of control | dose: 10.0 mg/kg/injection, schedule: Q04DX003 (ip), vehicle: saline 100 % of control | dose: 100.0 mg/kg/injection, schedule: Q01DX009 (ip), vehicle: saline with Tween-80 105 % of control

Oc1ccccc1C=NC1CCCCC1.Oc1ccccc1C=NC1CCCCC1.[Co+2]
inactive: [11] 100 % of control | [12] 100 % of control

CN(C)Cc1c[nH]c2ncccc12
inactive: dose: 6.25 mg/kg/injection, schedule: Q04DX003 (ip), vehicle: saline with Tween-80 98 % of control | dose: 12.5 mg/kg/injection, schedule: Q04DX003 (ip), vehicle: saline with Tween-80 96 % of control | [5] 102 % of control

COc1ccc2[nH]ccc2c1
inactive: dose: 100.0 mg/kg/injection, schedule: Q01DX009 (ip), vehicle: other 90 % of control | dose: 100.0 mg/kg/injection, schedule: Q04DX003 (ip), vehicle: other 92 % of control | dose: 200.0 mg/kg/injection, schedule: Q01DX009 (ip), vehicle: other 104 % of control | dose: 200.0 mg/kg/injection, schedule: Q04DX003 (ip), vehicle: other 105 % of control | dose: 400.0 mg/kg/injection, schedule: Q01DX009 (ip), vehicle: other 88 % of control | dose: 400.0 mg/kg/injection, schedule: Q04DX003 (ip), vehicle: other 94 % of control

CCOC(=O)CN1CCC(C(=O)OC)CC1
inactive: dose: 100.0 mg/kg/injection, schedule: Q01DX009 (ip), vehicle: saline 96 % of control | [6] 112 % of control | dose: 200.0 mg/kg/injection, schedule: Q01DX009 (ip), vehicle: saline 98 % of control | [7] 124 % of control | dose: 400.0 mg/kg/injection, schedule: Q01DX009 (ip), vehicle: saline 112 % of control | [8] 96 % of control

CC1(C)N=C(N)N=C(N)N1c1cc(Cl)ccc1Cl
inactive: dose: 12.0 mg/kg/injection, schedule: Q04DX003 (ip), vehicle: saline 117 % of control | dose: 12.5 mg/kg/injection, schedule: Q01DX001 (ip), vehicle: saline 98 % of control | dose: 25.0 mg/kg/injection, schedule: Q01DX001 (ip), vehicle: saline 90 % of control | dose: 25.0 mg/kg/injection, schedule: Q01DX009 (ip), vehicle: saline 101 % of control | dose: 25.0 mg/kg/injection, schedule: Q04DX003 (ip), vehicle: saline 100 % of control | dose: 50.0 mg/kg/injection, schedule: Q01DX001 (ip), vehicle: saline 98 % of control | dose: 50.0 mg/kg/injection, schedule: Q01DX009 (ip), vehicle: saline 97 % of control | dose: 50.0 mg/kg/injection, schedule: Q04DX003 (ip), vehicle: saline 103 % of control

COc1ccc(/C=C(\CC(=O)O)C(=O)O)cc1OC
inactive: [9] 92 % of control | [11] 96 % of control | [4] 95 % of control | [12] 91 % of control | [10] 95 % of control | [13] 102 % of control

OC1COC(CCl)OC1C1OC(CCl)OCC1O (configuration not stated)
inactive: [1] 96 % of control | [2] 96 % of control | [3] 96 % of control

CC(=O)NC1CCC(NC(C)=O)CC1 (configuration not stated)
inactive: dose: 100.0 mg/kg/injection, schedule: Q01DX001 (ip), vehicle: saline 104 % of control | dose: 200.0 mg/kg/injection, schedule: Q01DX001 (ip), vehicle: saline 97 % of control | dose: 400.0 mg/kg/injection, schedule: Q01DX001 (ip), vehicle: saline 104 % of control
